The record followed here is ChEMBL document CHEMBL1124489, “Synthesis and thromboxane synthetase inhibitory activity of di- or tetrahydrobenzo[b]thiophenecarboxylic acid derivatives” (J Med Chem, 1989).

The target of one test is T1, Thromboxane-A synthase (Homo sapiens, UniProt P24557).
T1 sequence (P24557 whole entry): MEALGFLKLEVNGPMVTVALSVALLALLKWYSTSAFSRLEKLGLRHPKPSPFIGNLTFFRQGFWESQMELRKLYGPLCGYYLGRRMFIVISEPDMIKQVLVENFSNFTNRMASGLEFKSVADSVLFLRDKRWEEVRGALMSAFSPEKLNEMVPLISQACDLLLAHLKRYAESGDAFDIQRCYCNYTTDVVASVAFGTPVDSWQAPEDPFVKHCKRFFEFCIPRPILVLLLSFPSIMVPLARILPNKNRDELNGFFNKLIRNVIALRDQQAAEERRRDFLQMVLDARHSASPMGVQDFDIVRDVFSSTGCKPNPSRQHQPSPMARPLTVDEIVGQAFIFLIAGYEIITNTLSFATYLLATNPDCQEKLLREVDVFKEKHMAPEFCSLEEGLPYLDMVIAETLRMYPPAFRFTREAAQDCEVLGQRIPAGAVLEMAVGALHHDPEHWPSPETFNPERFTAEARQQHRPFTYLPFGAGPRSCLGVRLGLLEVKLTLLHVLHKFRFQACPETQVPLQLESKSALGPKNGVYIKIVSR
Briefly: Inhibition of platelet microsomal thromboxane A synthetase in humans.

The subject of a further test is Oryctolagus cuniculus. Briefly: Protection against sodium arachidonate induced sudden death in rabbit, 1 hr after peroral administration. The test is classed as functional. The note with it: po.
Test [1] concerns the target T2, Thromboxane-A synthase (Rattus norvegicus) (UniProt P49430).
T2 sequence (whole entry): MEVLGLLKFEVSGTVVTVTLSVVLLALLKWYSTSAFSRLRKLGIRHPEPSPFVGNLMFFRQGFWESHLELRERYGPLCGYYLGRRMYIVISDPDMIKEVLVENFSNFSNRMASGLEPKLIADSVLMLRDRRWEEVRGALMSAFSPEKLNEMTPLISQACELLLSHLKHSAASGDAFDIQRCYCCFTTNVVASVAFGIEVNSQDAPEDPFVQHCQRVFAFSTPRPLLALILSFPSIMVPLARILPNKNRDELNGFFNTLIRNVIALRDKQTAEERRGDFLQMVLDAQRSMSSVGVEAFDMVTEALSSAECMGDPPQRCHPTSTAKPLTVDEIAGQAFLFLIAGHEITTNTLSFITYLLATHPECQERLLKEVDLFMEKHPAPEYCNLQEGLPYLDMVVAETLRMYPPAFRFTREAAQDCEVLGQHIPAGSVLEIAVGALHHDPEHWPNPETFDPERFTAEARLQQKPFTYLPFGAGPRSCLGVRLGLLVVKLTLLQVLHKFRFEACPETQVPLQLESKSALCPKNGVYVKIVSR
Kind of test: Inhibition of rat serum thromboxane A2 synthetase after 2 hr of oral administration of compound.

In test [2] the target is Thromboxane-A synthase (Oryctolagus cuniculus). Briefly: Inhibition of thromboxane A2 synthetase.
The target of test [3] is T2, Thromboxane-A synthase (Rattus norvegicus). The note with it: Serum.

In general, IC50 refers to the concentration at which inhibition is half-maximal. Read a low IC50 as greater potency in that assay. One may read the ED50 as the midpoint of the dose-response relation. At Thromboxane-A synthase, `O=C(O)C1=Cc2sc(Cn3ccnc3)cc2CC1` [IMITRODAST] gave a half-inhibitory concentration (IC50) of 0.006 µM. For the same molecule, the ED50 in the test on Oryctolagus cuniculus was found to be 0.43 µmol/kg. The molecule also returned an ID50 in test [1] of 0.064 µmol/kg.
As for `O=C(O)C1CCc2cc(Cn3ccnc3)sc2C1` (centres undefined), the IC50 on Thromboxane-A synthase came to 0.02 µM; in test [2] it was 0.026 µM. For the same molecule, in the test on Oryctolagus cuniculus, the ED50 stood at 0.9 µmol/kg. In addition, the ID50 in test [1] came out at 0.027 µmol/kg.
In test [3], `O=C(O)c1ccc(OCCn2ccnc2)cc1` [DAZOXIBEN] returned an ID50 of 0.468 µmol/kg. Besides, in the test with Oryctolagus cuniculus, the 50% effect level (ED50) was put at a dose of 3.17 µmol/kg.
